Read-outs that look alike come from different tables or passages of the source. Marks after values point to notes of the source that are not given here.
Key:
[1] = Metabolic stability in mouse liver microsomes; type: in vitro ADME; conditions: for half-life at 0.5 μM: mouse, liver microsomes
Method: Test compounds (0.5 μM) were incubated at 37° C. for up to 45 minutes in 50 mM of potassium phosphate buffer (pH 7.4) containing mouse liver microsomal protein (0.5 mg/mL) and an NADPH generating system (0.34 mg/mL β-nicotinamide adenine dinucleotide phosphate (NADP), 1.56 mg/mL glucose-6-phosphate, 1.2 units/mL glucose-6-phosphate dehydrogenase). At 0, 5, 15, 30, and 45 minute intervals, an aliquot was taken and quenched with acetonitrile (ACN) containing internal standard. No-cofactor controls at 45 minutes were prepared. Following completion of the experiment, the samples were analyzed by LC-MS/MS.
The half-life (t1/2) was calculated using the following equation: t1/2=0.693/k Where, k is the elimination rate constant of test compounds obtained by fitting the data to the equation: C=initial×exp(−k×t) Intrinsic clearance (Clint) is calculated as liver clearance from the half-life using the following equation: […]
0.5 mg protein/mL incubation
Ethoxycoumarin was used as a control.

[2] = In vitro stability study in mouse plasma; type: in vitro ADME; conditions: for Percent Remaining: 37° C.
Method: The assay was conducted by incubating 1 μM of test compounds with Mouse Plasma (Strain […]) for a series of incubation times (0, 15, 30, 60, 120 minutes) at various temperatures (wet ice, room temperature, or 37° C.) with 5% CO2 and shaking (130 rpm). At each time point, the samples were quenched with 200 μL of stop solution containing an internal standard and kept on ice. The samples were analysed by LC-MS/MS.

[3] = test system: C57BL/6 mice, kidney ischemia-reperfusion injury; test: Kidney model of ischemia-reperfusion injury (IRI); type: in vivo
Method: As an initial in vivo study, the effects of Fer-1 and SRS16-86 on serum creatinine, a marker of kidney damage, were evaluated in an ischemia reperfusion injury (IRI) model of kidney failure (FIG. 21).
Organs were dissected as indicated in each experiment and infused with 4% (vol/vol) neutral-buffered formaldehyde, fixated for 48 h, dehydrated in a graded ethanol series and xylene, and finally embedded in paraffin. Stained sections were analyzed using an Axio Imager microscope (Zeiss). Kidney damage was quantified by two experienced pathologists in a double-blind manner on a scale ranging from 0 (unaffected tissue) to 10 (severe organ damage). The following parameters were chosen as indicative of morphological damage to the kidney after ischemia-reperfusion injury (IRI): brush border loss, red blood cell extravasation, tubule dilatation, tubule degeneration, tubule necrosis, and tubular cast formation. These parameters were evaluated on a scale of 0-10, which ranged from not present (0), mild (1-4), moderate (5 or 6), severe (7 or 8), to very severe (9 or 10). Each parameter was determined on at least four different animals.
Induction of kidney IRI was performed via a midline abdominal incision and a bilateral renal pedicle clamping for either 40 min (severe IRI, or “lethal-to-WT” IRI) or 50 min (ultra-severe IRI) using microaneurysm clamps (Aesculab). Throughout the surgical procedure, the body temperature was maintained between 36° C. and 37° C. by continuous monitoring using a temperature-controlled self-regulated heating system (Fine Science Tools). After removal of the clamps, reperfusion of the kidneys was confirmed visually. The abdomen was closed in two layers using standard 6-0 sutures. Sham-operated mice underwent the identical surgical procedures, except that microaneurysm clamps were not applied. To maintain fluid balance, all of the mice were supplemented with 1 mL of prewarmed PBS administered intraperitoneally directly after surgery. All mice were killed 48 h after reperfusion for each experiment. […] All ischemia-reperfusion experiments were performed in a double-blinded manner.

HT1080 cells = test: FACS (7AAD / annexin V) of erastin-treated HT1080 cells; type: cell-based, human; conditions: 50 μM erastin, 1 μM compound
Method: (§1) For induction of necroptosis, HT-29 cells were stimulated for 24 h at 37° C. with 100 ng/mL TNFα plus 1 μM Smac mimetics plus 25 μM zVAD as indicated (vehicle-treated cells served as control). For induction of ferroptosis, NIH and HT-1080 cells were each stimulated for 24 h at 37° C. with 50 μM erastin as indicated (vehicle-treated cells served as a control). For induction of apoptosis, Jurkat cells were stimulated for 4 h with 100 ng/mL monoclonal anti-Fas (clone 7C11; Immunotech). Anti-Fas-induced apoptosis of Jurkat cells was inhibited by further addition of 25 μM zVAD (vehicle-treated cells served as control).
(§2) Phosphatidylserine exposure to the outer cell membrane of apoptotic cells or at the inner plasma membrane of necrotic cells and incorporation of 7-AAD into necrotic cells were quantified by fluorescence-activated cell sorting (FACS) analysis. The ApoAlert annexin V-FITC antibody and the 7-AAD antibody were purchased from BD Biosciences.

NIH 3T3 cells = test: FACS (7AAD / annexin V) of erastin-treated NIH 3T3 cells; type: cell-based, murine; conditions: 50 μM erastin, 1 μM compound
Method: as §1, §2

[4] = test system: freshly isolated murine renal tubules; test: Synchronized necrosis of freshly isolated renal tubules (fatty-acid depletion / erastin); type: cell-based, mouse; conditions: in the presence of fatty acids
Method: Six to 12 mice were used for each isolated tubule preparation, depending on the amount of material needed for particular experiments. For preparation of isolated tubules, mice were anesthetized with ketamine (100 mg/kg i.p.) and xylazine (10 mg/kg i.p.), and the kidneys were immediately removed. Type I collagenase was from Worthington Biochemical. Percoll was purchased from Amersham Biosciences. All other reagents and chemicals, including delipidated BSA, were of the highest grade available from Sigma-Aldrich. […] The cortices were then dissected and minced on an ice-cold tile and then resuspended in additional solution A for 8-10 min of digestion at 37° C., followed by enrichment of proximal tubules using centrifugation on self-forming Percoll gradients. For Nec-1 studies in renal tubules, renal cortices were dissected in ice-cold dissection solution (DS) [HBSS with 10 mmol/L glucose, 5 mmol/L glycine, 1 mmol/L alanine, 15 mmol/L Hepes (pH 7.4); osmolality, 325 mOsmol/L] and sliced into 1-mm pieces. The fragments were transferred to collagenase solution (DS with 0.1% (wt/vol) type 2 collagenase and 96 μg/mL soybean trypsin inhibitor) and digested for 30 min at 37° C. and 61×g. After digestion, the supernatant was sieved through two nylon sieves: first 250-μm pore size and then 100-μm pore size. […]

For CC(C)(C)OC(=O)c1ccc(NC23CC4CC(CC(C4)C2)C3)c(/N=C\c2cncnc2)c1 [SRS16-86, tert-butyl 4-(adamantylamino)-3-(pyrimidin-5-ylmethyleneamino)benzoate], the “Elimination rate constant (k)” value ([1]; Mouse, Compound Conc = 0.5 μM) was less than 0.0048, the “Intrinsic Clearance (CLint) (mL/min/g liver)” value ([1]; Mouse, Compound Conc = 0.5 μM) was <0.5* mL/min/g liver and the half-life at 0.5 μM ([1]; pH 7.4, Mouse, Compound Conc = 0.5 μM, read-out: Half life (t½)) was greater than 1.5 h. For the same compound, the half-life at 0.5 μM ([1]; pH 7.4, stated in the text of Example 15, read-out: T1/2 in mouse liver microsomes) was greater than 2 h, the “Percent Remaining” value ([2]; 0 minutes) was 100.0% and the “Percent Remaining” value ([2]; 15 minutes) was 82.2%. For the same compound, the “Percent Remaining” value ([2]; 30 minutes) was 86.5%, the “Percent Remaining” value ([2]; 60 minutes) was 83.9% and the “Percent Remaining” value ([2]; 120 minutes) was 63.9%. The half-life at 1 μM ([2]; C57BL/4, mouse, plasma, read-out: T1/2 in mouse plasma) was greater than 2 h, the “serum creatinine in IRI model of kidney failure” value ([3]; 2 mg/kg IP 30 minutes prior to induction of IRI) was “effective” and the “functional acute renal failure and structural organ damage after severe IRI” value ([3]; 40 min ischemia, 48 h after reperfusion, 2 mg/kg i.p.) was “protected from functional acute renal failure”. The “serum urea and serum creatinine in ultrasevere IRI, added to Nec-1+SfA” value ([3]; 50 min ischemia, Nec-1+SfA-treated mice, 2 mg/kg i.p.) was “reduced plasma levels of serum urea and serum creatinine”, the “ferroptosis-inhibiting ability (FACS)” value (HT1080 cells) was “active compound” and the “ferroptosis-inhibiting ability (FACS)” value (NIH 3T3 cells) was “active compound”. The tubular necrosis [4] was “prevented”.

— patent US11192849B2, “Compounds, compositions, and methods for modulating ferroptosis and treating excitotoxic disorders” (THE TRUSTEES OF COLUMBIA UNIVERSITY IN THE CITY OF NEW YORK, priority 2013, dated 2021)
